# Tested on: sleep-deprived healthy volunteers
# Experiment: Karolinska Sleepiness Scale (KSS) in sleep-deprived healthy volunteers
# Type: in vivo, human
# Settings: for KSS Sleepy/Alert LS Mean / KSS Sleepy/Alert LS Mean Difference vs Placebo Estimate: M: Modafinil 300 mg
# Experimental: During the day before dosing on Day 1, participants were administered the KSS at scheduled timepoints. A practice MWT session was performed on Day 1 treatment period 1 (only once during the entire study) to familiarize subjects with the procedures. Study drug was administered in the clinic in the evening on Day 1 of each treatment period. Subjects underwent the MWT and KSS at specified timepoints after the start of the infusion. Subjects were required to stay awake between the MWT tests. Following completion of the IV infusion on Day 2, subjects underwent an additional MWT test. When the final MWT test and cognitive testing were completed, subjects were allowed to sleep (recovery sleep) for approximately 6 hours. PSG recording was collected during this time. Subjects were discharged from the unit after completion on Day 2 with continuing actigraphy upon discharge (to begin on Day −6 before the next treatment period). The interval between each subsequent treatment period was at least 7 days to ensure that the subject's circadian rhythm had returned to a normal cycle. Subject's vital signs, including BP, were monitored during the dosing and testing period. Blood samples for determination of Compound A plasma concentrations were collected at specified timepoints on Days 1 and 2 of each treatment period. Subjects completed the Columbia-Suicide Severity Rating Scale (C-SSRS) during screening, before study drug administration, and before discharge on Day 2 of each treatment period.
# Secondary endpoints: • PK parameters calculated from plasma concentrations of Compound A. • Scores for sleepiness on the Karolinska Sleepiness Scale (KSS).
# The secondary efficacy endpoint was sleepiness/alertness as assessed by KSS at 14, 10, 6, and 2 hours predose (approximately between 7:45 AM to 7:45 PM); 2, 2.75, 4.75, 6.75, and 8.75 hours post infusion start (approximately between mid-night to 7 AM in the morning); and at 1.75 hours post infusion end. A higher value indicates more sleepiness, a lower value indicates more alertness. Prior to infusion, there were no statistically significant differences at any time point of observation in KSS score for Compound A 44 and 112 mg treatments when compared to placebo. […] On the average, for modafinil and Compound A 44 and 112 mg, there were about 1.6 to 3.7 points increase in the KSS postdose/the infusion start, relative to that prior to dosing during the daytime. However, for placebo, the increase in the average KSS is 4.9.
# [1] = DELTA: AVERAGE POST - AVERAGE PRIOR
# [2] = Modafinil 300 mg, 1.75 HOURS POST INFUSION END
# [3] = Modafinil 300 mg, 2 HOURS PREDOSE
# [4] = Modafinil 300 mg, 2.75 HOURS POST INFUSION START
# [5] = Modafinil 300 mg, 4.75 HOURS POST INFUSION START
# [6] = Modafinil 300 mg, 6 HOURS PREDOSE
# [7] = Modafinil 300 mg, 6.75 HOURS POST INFUSION START
# [8] = Modafinil 300 mg, 8.75 HOURS POST INFUSION START
# [9] = Modafinil 300 mg, 10 HOURS PREDOSE
# [10] = Modafinil 300 mg, 14 HOURS PREDOSE
structure (smiles),measurement,setting,value
"NC(=O)C[S+]([O-])C(c1ccccc1)c1ccccc1 (stereo not drawn) [Modafinil, modafinil, reference compound]",KSS Sleepy/Alert LS Mean,1.75 HOURS POST INFUSION END,7.16
same,KSS Sleepy/Alert LS Mean Difference vs Placebo Estimate,1.75 HOURS POST INFUSION END,−0.99
same,KSS Sleepy/Alert LS Mean,2 HOURS PREDOSE,3.32
same,KSS Sleepy/Alert LS Mean Difference vs Placebo Estimate,2 HOURS PREDOSE,−0.58
same,KSS Sleepy/Alert LS Mean,2.75 HOURS POST INFUSION START,3.69
same,KSS Sleepy/Alert LS Mean Difference vs Placebo Estimate,2.75 HOURS POST INFUSION START,−3.16
same,KSS Sleepy/Alert LS Mean,4.75 HOURS POST INFUSION START,4.32
same,KSS Sleepy/Alert LS Mean Difference vs Placebo Estimate,4.75 HOURS POST INFUSION START,−3.83
same,KSS Sleepy/Alert LS Mean,6 HOURS PREDOSE,2.58
same,KSS Sleepy/Alert LS Mean Difference vs Placebo Estimate,6 HOURS PREDOSE,−0.22
same,KSS Sleepy/Alert LS Mean,6.75 HOURS POST INFUSION START,5.79
same,KSS Sleepy/Alert LS Mean Difference vs Placebo Estimate,6.75 HOURS POST INFUSION START,−2.71
same,KSS Sleepy/Alert LS Mean,8.75 HOURS POST INFUSION START,6.69
same,KSS Sleepy/Alert LS Mean Difference vs Placebo Estimate,8.75 HOURS POST INFUSION START,−1.65
same,KSS Sleepy/Alert LS Mean,10 HOURS PREDOSE,2.32
same,KSS Sleepy/Alert LS Mean Difference vs Placebo Estimate,10 HOURS PREDOSE,−0.18
same,KSS Sleepy/Alert LS Mean,14 HOURS PREDOSE,2.79
same,KSS Sleepy/Alert LS Mean Difference vs Placebo Estimate,14 HOURS PREDOSE,−0.26
same,KSS Sleepy/Alert LS Mean,"AVERAGE POST INFUSION START (2.75, 4.75, 6.75 AND 8.75 HOURS)",5.12
same,KSS Sleepy/Alert LS Mean,"AVERAGE PRIOR TO INFUSION START (14, 10, 6, 2 HOURS PREDOSE)",2.75
same,KSS Sleepy/Alert LS Mean,[1],2.37
same,KSS Sleepy/Alert LS Mean Difference vs Placebo Estimate,[1],−2.53
same,"Difference between average KSS score post and prior to infusion start, LS Mean (SE)",Modafinil 300 mg,2.37 (0.323)
same,KSS Max,[2],9
same,KSS Mean (SD),[2],7.2 (1.80)
same,KSS Median,[2],8.0
same,KSS Min,[2],3
same,KSS Max,[3],6
same,KSS Mean (SD),[3],3.3 (1.20)
same,KSS Median,[3],3.0
same,KSS Min,[3],1
same,KSS Max,[4],6
same,KSS Mean (SD),[4],3.7 (1.63)
same,KSS Median,[4],4.0
same,KSS Min,[4],1
same,KSS Max,[5],7
same,KSS Mean (SD),[5],4.3 (1.89)
same,KSS Median,[5],4.0
same,KSS Min,[5],1
same,KSS Max,[6],7
same,KSS Mean (SD),[6],2.6 (1.35)
same,KSS Median,[6],2.0
same,KSS Min,[6],1
same,KSS Max,[7],8
same,KSS Mean (SD),[7],5.8 (2.12)
same,KSS Median,[7],6.0
same,KSS Min,[7],2
same,KSS Max,[8],9
same,KSS Mean (SD),[8],6.7 (1.92)
same,KSS Median,[8],7.0
same,KSS Min,[8],3
same,KSS Max,[9],5
same,KSS Mean (SD),[9],2.3 (1.11)
same,KSS Median,[9],2.0
same,KSS Min,[9],1
same,KSS Max,[10],5
same,KSS Mean (SD),[10],2.8 (1.08)
same,KSS Median,[10],3.0
same,KSS Min,[10],1
same,KSS score,"Modafinil 300 mg, 1.75 hours post infusion end",7.16

# Reference: patent US20220331303A1, “USE OF AN OREXIN 2 RECEPTOR AGONIST FOR THE TREATMENT OF EXCESSIVE SLEEPINESS” (Takeda Pharmaceutical Company Limited, priority 2019, published 2022)
